In ChEMBL document CHEMBL1158968, “Novel cytotoxic principles of Formosan Ganoderma lucidum” (1991):
≈ marks a conversion by molar mass, not a printed value.

How the values were obtained:
[1] = Cytotoxicity against human PLC/PRF/5 cells after 4 days; assay type: functional; details: PLC-PRF-5, 96 h, read-out: ED50 (the source's name)
KB = experiment: Cytotoxicity against human KB cells after 4 days; assay type: functional; details: 96 h, read-out: ED50 (the source's name)

Compound | EC50 [1] | EC50 (KB)
C/C(C=O)=C\CC[C@@H](C)[C@H]1CC[C@@]2(C)C3=C(C(=O)C[C@]12C)[C@@]1(C)CC[C@H](O)C(C)(C)[C@@H]1CC3 [GANODERIC ALDEHYDE A] | 2.54 µg/mL (≈ 5.59 µM) | 1.25 µg/mL (≈ 2.75 µM)
CC(C)[C@@H](C)/C=C/[C@@H](C)[C@H]1CC[C@@H]2[C@]1(C)CC[C@H]1[C@]23C=C[C@]2(C[C@@H](O)CC[C@]12C)OO3 [ERGOSTEROL PEROXIDE] | 11 µg/mL (≈ 25.6 µM) | 9.79 µg/mL (≈ 22.8 µM)
C/C(=C\CC[C@@H](C)[C@H]1CC[C@@]2(C)C3=C(C(=O)C[C@]12C)[C@@]1(C)CC[C@H](O)C(C)(C)[C@@H]1CC3)CO [2H-GANODERIC ALDEHYDE A] | 10.7 µg/mL (≈ 23.5 µM) | 8.27 µg/mL (≈ 18.1 µM)
